“And” between values parts separate entries of the source, which are not always exact repeats. Equal entries are not always repeated.
Key:
[1] = test system: human polymorphnuclear leucocytes (PMN); experiment: Inhibition of the release of lysosomal β-glucuronidase from human polymorphnuclear leucocytes (PMN) during phagocytosis of zymosan particles; type: cell-based; conditions: in vitro; for IC20: Homo sapiens, Leucocyte, 20% inhibition of release (EC20, not EC50), zymosan-phagocytosis, Fieller confidence limits given
Protocol: The compounds were tested for their inhibitory effect on the release of lyosomal enzymes (β-glucuronidase was the lysomal marker-enzyme) from human polymorphnuclear leucocytes (PMN) during the phagocytosis of zymosan particles. According to WEISSMANN, the release of lyosomal enzymes in the course of the phagocytosis of immune complexes plays a significant role for the "self perpetuation" in rheumatoid arthritis. The test was performed according to the method of WEISSMANN et al. [J. Exp. Med. 134, 149s-165s (1971)]. The buffer system and the incubation times were changed, the number of the zymosan particles and the number of PMN was standardized. From the inhibiting effects produced by the test substance in comparison with the zymosan control, an EC20 with confidence limits according to FIELLER (Quart. J. Pharm. Pharmacol. 17, 117-123 (1944) was calculated by linear regression analysis according to LINDER [Stat. Methoden, 4th Ed., 148-162, published by Birkhauser, Basel, Switzerland (1964)] as the end concentration of the test substance that produced a 20% inhibition of the release of lysosomal β-glucuronidasefrom human polymorphnuclear leucocytes in vitro during the zymosan-phagocytosis.
Effect on the release of lysosomal β-glucuronidase from human polymorph-nucleic leucocytes under zymosan-phagocytosis.

[2] = long-lasting in vivo activity compared with other β-mimetics; conditions: no data given
[3] = enteral absorption; type: in vivo; conditions: no data given

enteral absorption [3]	Compound	IC20 [1]	stronger inhibitor of the release of lysosomal enzymes than terbutaline sulfate ([1]; relative to terbutaline sulfate (B))	in vivo activity, duration [2]
–	CC(C)(C)NCC(O)c1cc(O)cc(O)c1 (centres unmarked) [B, reference compound]	2.4 µM and 0.658 µg/mL	–	–
very good	CCOC(=O)Nc1c(F)cc(C(O)CNC(C)(C)C)cc1C#N.Cl (centres unmarked) [Compound A, 1-(4-ethoxycarbonylamino-3-cyano-5-fluoro-phenyl)-2-tert. butylamino-ethanol hydrochloride]	130 nM and 0.0468 µg/mL	about 18 times stronger	long-lasting

— patent US4244967A, “Antiphlogistic pharmaceutical compositions containing a phenylethanolamine and methods of use” (priority 1978, dated 1981)
